How the values were obtained:
TRβ = target: T1, TRβ (Homo sapiens, UniProt P10828); assay: TR reporter-gene assay (Gal4 DBD hybrid, luciferase), TRβ; assay type: cell-based; conditions: for EC50: HEK293-derived reporter cells, 24 hr treatment, read-out: TRβ EC50; for T3-SI (selectivity index, EC50 (TRα)/EC50 (TRβ)): class symbols
T1 construct: expressed in transfected cells; host or cells: HEK293
T1 sequence (P10828 217-461 limits assumed): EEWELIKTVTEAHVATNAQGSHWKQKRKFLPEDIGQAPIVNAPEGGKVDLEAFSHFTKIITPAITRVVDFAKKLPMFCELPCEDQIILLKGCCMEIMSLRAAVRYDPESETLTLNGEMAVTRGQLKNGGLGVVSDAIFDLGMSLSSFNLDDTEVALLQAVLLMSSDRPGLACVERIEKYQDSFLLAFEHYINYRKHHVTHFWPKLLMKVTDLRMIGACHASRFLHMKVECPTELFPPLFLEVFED
Procedure, shortened: (§1)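 HEK293 reporter cells expressing Gal4-DBD/TR ligand-binding hybrids driving firefly luciferase from a Gal4 UAS; cells pre-incubated 6 h, then treated 24 h at 37 °C in medium with 10% charcoal-stripped FBS (final DMSO 0.1–0.4%), in duplicate. Read-out was luminescence (RLU).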

TRα = target: T2, TRα (Homo sapiens, UniProt P10827); assay: TR reporter-gene assay (Gal4 DBD hybrid, luciferase), TRα; assay type: cell-based; conditions: HEK293-derived reporter cells, 24 hr treatment; read-out: TRα EC50
T2 construct: expressed in transfected cells; host or cells: HEK293
T2 sequence (P10827 1-410 isoform P10827-2): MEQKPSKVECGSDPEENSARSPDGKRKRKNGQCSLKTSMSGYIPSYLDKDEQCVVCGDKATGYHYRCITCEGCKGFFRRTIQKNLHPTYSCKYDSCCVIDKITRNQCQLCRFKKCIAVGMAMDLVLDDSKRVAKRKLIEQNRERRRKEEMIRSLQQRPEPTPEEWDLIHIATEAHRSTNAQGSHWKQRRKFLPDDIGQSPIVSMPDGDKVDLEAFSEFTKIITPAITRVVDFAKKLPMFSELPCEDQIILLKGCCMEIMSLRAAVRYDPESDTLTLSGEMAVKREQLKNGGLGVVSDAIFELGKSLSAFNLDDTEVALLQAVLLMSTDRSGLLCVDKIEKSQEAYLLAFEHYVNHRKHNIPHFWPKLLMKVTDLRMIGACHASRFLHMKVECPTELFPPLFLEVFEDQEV
Procedure, shortened: as §1

| SMILES | EC50 (TRβ) | T3-SI (selectivity index, EC50 (TRα)/EC50 (TRβ)) (TRβ) | EC50 (TRα) |
| --- | --- | --- | --- |
| Cc1cc(NCC(=O)O)cc(Cl)c1Cc1ccc(O)c(C(C)C)c1 [Compound 125, (3-chloro-4-(4-hydroxy-3-isopropylbenzyl)-5-methylphenyl)glycine] | 10 to 100 nM | ++ (3× < T3-SI ≤ 30×) | 10 to 100 nM |
| CC(C)c1c(O)ccc(Cc2c(Cl)cc(CC(=O)O)c(F)c2Cl)c1F [Compound 69, 2-(3,5-dichloro-2-fluoro-4-(2-fluoro-4-hydroxy-3-isopropylbenzyl)phenyl)acetic acid] | < 10 nM | ++ (3× < T3-SI ≤ 30×) | 10 to 100 nM |
| C/C(=C\c1cc(Cl)c(Cc2ccc(O)c(C(C)C)c2)c(Cl)c1)C(=O)O [Compound 102, (E)-3-(3,5-dichloro-4-(4-hydroxy-3-isopropylbenzyl)phenyl)-2-methylacrylic acid] | 100 to 1000 nM | ++ (3× < T3-SI ≤ 30×) | 100 to 1000 nM |
| CC(C)c1cc(Cc2c(Cl)cc(CSCC(=O)O)cc2Cl)ccc1O [Compound 95, 2-((3,5-dichloro-4-(4-hydroxy-3-isopropylbenzyl)benzyl)thio)acetic acid] | 100 to 1000 nM | ++ (3× < T3-SI ≤ 30×) | 10 to 100 nM |
| CC(C)c1c(O)ccc(Cc2c(Cl)cc(/C=C/C(=O)O)cc2Cl)c1F [Compound 88, (E)-3-(3,5-dichloro-4-(2-fluoro-4-hydroxy-3-isopropylbenzyl)phenyl)acrylic acid] | < 10 nM | + (T3-SI ≤ 3×) | < 10 nM |
| CC(c1ccc(F)cc1)c1c(O)ccc(Cc2c(Cl)cc(CCC(=O)O)cc2Cl)c1F (stereo not drawn) [Compound 18, 3-(3,5-dichloro-4-(2-fluoro-3-(1-(4-fluorophenyl)ethyl)-4-hydroxybenzyl)phenyl)propanoic acid] | 10 to 100 nM | + (T3-SI ≤ 3×) | 10 to 100 nM |
| Cc1cc(SCC(=O)O)cc(Cl)c1Cc1ccc(O)c(C(C)C)c1 [Compound 123, 2-((3-chloro-4-(4-hydroxy-3-isopropylbenzyl)-5-methylphenyl)thio)acetic acid] | 100 to 1000 nM | ++ (3× < T3-SI ≤ 30×) | 100 to 1000 nM |

— patent US12528761B2, “Thyromimetics” (Autobahn Therapeutics, Inc., priority 2020, dated 2026)
